For 19 compounds, inhibition in vivo, ED50 and Kb results are on record in ChEMBL document CHEMBL1123515, “Bioisosteric prototype design of biaryl imidazolyl and triazolyl competitive histamine H2-receptor antagonists” (1986).

Usually inhibition in vivo stands for the share of the control response that was lost under treatment. Low readings indicate a weak effect, high ones a strong effect. For orientation: ED50 means the midpoint of the dose-response relation. The low end stands for greater potency, the high end for weaker potency. A word on the Kb: it is the affinity of an antagonist, worked out from how it opposes an agonist. Low values mean higher antagonist affinity, high ones lower antagonist affinity.

Test [1] relates to Canis familiaris. The experiment in a line: Maximum percent inhibition of acid output in penta gastrin-stimulated Heidenhain pouch dogs at a dose of 5 mg/kg, given intravenously (iv). The format is functional. The settings on record: Canis lupus familiaris.
Test [2] concerns Canis familiaris. The experiment in a line: Maximum percent inhibition of acid output in penta gastrin-stimulated Heidenhain pouch dogs at a dose of 10 mg/kg, given intravenously (iv). The format is functional. As to conditions: Canis lupus familiaris.
Test [3] relates to Canis familiaris. The experiment in a line: Effective dose on oral administration was evaluated for the inhibition of acid output in penta gastrin stimulated Heidenhain pouch dogs. The format is functional. The settings on record: Canis lupus familiaris.
The target of test [4] is Histamine H2 receptor (Cavia porcellus) (UniProt P47747). Nature of the test: Histamine H2 receptor antagonistic activity was evaluated in guinea pig atrium. Format: functional, tissue-based. As to conditions: Cardiac atrium.
For test [5], the system named is Canis familiaris. Nature of the test: Effective dose on intravenous administration was evaluated for the inhibition of acid output in penta gastrin stimulated Heidenhain pouch dogs. The settings on record: Canis lupus familiaris. The format is functional.
Test [6] relates to Canis familiaris. The experiment in a line: Maximum percent inhibition of acid output in penta gastrin-stimulated Heidenhain pouch dogs at a dose of 0.5 mg/kg, given intravenously (iv). Format: functional. As to conditions: Canis lupus familiaris.
Test [7] concerns Canis familiaris. The experiment in a line: Maximum percent inhibition of acid output in penta gastrin-stimulated Heidenhain pouch dogs at a dose of 1 mg/kg, given intravenously (iv). The format is functional. As to conditions: Canis lupus familiaris.
Test [8] concerns Canis familiaris. The experiment in a line: Maximum percent inhibition of acid output in penta gastrin-stimulated Heidenhain pouch dogs at a dose of 7 mg/kg, given intravenously (iv). Format: functional. The settings on record: Canis lupus familiaris.

Sequence of Histamine H2 receptor (Cavia porcellus) (P47747 whole entry): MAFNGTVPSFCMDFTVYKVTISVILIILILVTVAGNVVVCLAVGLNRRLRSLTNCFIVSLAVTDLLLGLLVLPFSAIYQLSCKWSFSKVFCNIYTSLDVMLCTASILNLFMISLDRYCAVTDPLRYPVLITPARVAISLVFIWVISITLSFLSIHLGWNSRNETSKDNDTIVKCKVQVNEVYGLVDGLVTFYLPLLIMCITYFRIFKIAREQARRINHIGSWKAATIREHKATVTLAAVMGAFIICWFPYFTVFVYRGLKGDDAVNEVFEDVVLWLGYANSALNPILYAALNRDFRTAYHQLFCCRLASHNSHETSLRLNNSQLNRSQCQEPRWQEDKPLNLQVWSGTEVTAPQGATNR

Turning to `CCNc1cc(-c2n[nH]c(CCCC/N=C(\S)NC)n2)ccn1`, the inhibition in vivo at 5 mg/kg in test [1] was determined as 27%.

`CN/C(=N\CCSCc1nc[nH]c1C)NC#N` [CIMETIDINE] gave an inhibition in vivo at 10 mg/kg in test [2] of 1.02%. For the same compound, it took a dose of 1.32 mg/kg to reach the 50% effect level in test [3] (ED50). In test [4], `CNC(=C[N+](=O)[O-])NCCSCc1ccc(CN(C)C)o1` came in with a Kb of 166 nM. Take `CCNc1cc(-c2n[nH]c(N)n2)ccn1`: in test [5], the ED50 came out at 0.87 mg/kg.

The compound `Cc1ncc(-c2csc(N=C(N)N)n2)[nH]1` [ZALTIDINE] came in with a Kb in test [4] of 18 nM. In test [3], this compound gave a 50% effective dose (ED50) of 0.27 mg/kg. Moreover, the inhibition in vivo at 0.5 mg/kg in test [6] was 90%. Turning to `N=C(N)Nc1nc(-c2n[nH]c(N)n2)cs1`, testing at 1 mg/kg in test [7] gave an inhibition in vivo of 58%. `CCNc1cc(-c2c[nH]c(CC/N=C(\S)NC)n2)ccn1` returned an inhibition in vivo at 5 mg/kg in test [1] of 47%. The same compound came in with a Kb in test [4] of 550 nM. As to `CCNc1cc(-c2n[nH]c(CCCC/N=C(/NC)NC#N)n2)ccn1`, the inhibition in vivo at 10 mg/kg in test [2] stood at 16%. Regarding `CCNc1cc(-c2n[nH]c(CC/N=C(\S)NC)n2)ccn1`, at 1 mg/kg the inhibition in vivo in test [7] was 59%. For the same compound, in test [4], the Kb was found to be 690 nM.

Turning to `CCNc1cc(-c2c[nH]c(C/N=C(/S)NC)n2)ccn1`, the inhibition in vivo at 5 mg/kg in test [1] stood at 54%.

`N=C(N)Nc1nc(-c2c[nH]c(N)n2)cs1` showed an inhibition in vivo at 1 mg/kg in test [7] of 96%. In test [2], `CCNc1cc(-c2n[nH]c(C/N=C(/S)NC)n2)ccn1` registered an inhibition in vivo at 10 mg/kg of 48%.

In test [1], `CCNc1cc(-c2c[nH]c(C/N=C(\NC)NC#N)n2)ccn1` displayed an inhibition in vivo at 5 mg/kg of 32%.

Compound `CCNc1cc(-c2n[nH]c(CC/N=C(/NC)NC#N)n2)ccn1` came in with an inhibition in vivo at 7 mg/kg in test [8] of 0%. The compound further returned a Kb in test [4] of 1240 nM. Turning to `N=C(N)Nc1nc(-c2c[nH]cn2)cs1`, 1 mg/kg produced 95% inhibition in vivo in test [7]. In the case of `C/N=C(\S)NCc1cc(-c2n[nH]c(N)n2)ccn1`, at 10 mg/kg the inhibition in vivo in test [2] was 19%.

Compound `Cc1n[nH]c(-c2csc(N=C(N)N)n2)n1` registered an inhibition in vivo at 1 mg/kg in test [7] of 50%.

As to `CCNc1cc(-c2n[nH]c(C/N=C(\NC)NC#N)n2)ccn1`, 10 mg/kg produced 0% inhibition in vivo in test [2]. For `CCNc1cc(-c2n[nH]c(CCC/N=C(/S)NC)n2)ccn1`, in test [7], the inhibition in vivo at 1 mg/kg worked out at 20%.
